In PubChem BioAssay (NCI):
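Tested at 5 concentrations; 48 h exposure; 96-well plates; endpoints linearly interpolated, else capped at highest concentration. TGI: total growth inhibition.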

What was measured:
Assay in all cases: NCI anticancer screen, dose series, 48 h
UACC-257 melanoma = tested on: UACC-257 melanoma
SNB-75 CNS = tested on: SNB-75 CNS
UO-31 renal = tested on: UO-31 renal
SK-MEL-5 melanoma = tested on: SK-MEL-5 melanoma
NCI-H522 lung = tested on: NCI-H522 lung
SR leukemia = tested on: SR leukemia
HS 578T breast = tested on: HS 578T breast
DU-145 prostate = tested on: DU-145 prostate
MDA-MB-231 breast = tested on: MDA-MB-231 breast
KM12 colon = tested on: KM12 colon
LOX IMVI melanoma = tested on: LOX IMVI melanoma
MALME-3M melanoma = tested on: MALME-3M melanoma
SW-620 colon = tested on: SW-620 colon
SF-295 CNS = tested on: SF-295 CNS
HCC-2998 colon = tested on: HCC-2998 colon
RPMI-8226 leukemia = tested on: RPMI-8226 leukemia
OVCAR-5 ovarian = tested on: OVCAR-5 ovarian
ACHN renal = tested on: ACHN renal
SNB-19 CNS = tested on: SNB-19 CNS
UACC-62 melanoma = tested on: UACC-62 melanoma
OVCAR-4 ovarian = tested on: OVCAR-4 ovarian
CAKI-1 renal = tested on: CAKI-1 renal
HOP-62 NSCLC = tested on: HOP-62 NSCLC
A498 renal = tested on: A498 renal
EKVX NSCLC = tested on: EKVX NSCLC
NCI-H23 lung = tested on: NCI-H23 lung
SN12C renal = tested on: SN12C renal
SK-MEL-28 melanoma = tested on: SK-MEL-28 melanoma
PC-3 prostate = tested on: PC-3 prostate
MOLT-4 leukemia = tested on: MOLT-4 leukemia
SF-268 CNS = tested on: SF-268 CNS
MDA-MB-435 = tested on: MDA-MB-435
TK-10 renal = tested on: TK-10 renal
HCT-116 colon = tested on: HCT-116 colon
A549 NSCLC = tested on: A549 NSCLC
OVCAR-3 ovarian = tested on: OVCAR-3 ovarian
MCF7 breast = tested on: MCF7 breast
K-562 leukemia = tested on: K-562 leukemia
CCRF-CEM leukemia = tested on: CCRF-CEM leukemia
HCT-15 colon = tested on: HCT-15 colon
HOP-92 NSCLC = tested on: HOP-92 NSCLC
NCI/ADR-RES ovarian = tested on: NCI/ADR-RES ovarian
M14 melanoma = tested on: M14 melanoma
NCI-H460 lung = tested on: NCI-H460 lung
COLO 205 colon = tested on: COLO 205 colon
OVCAR-8 ovarian = tested on: OVCAR-8 ovarian
IGROV1 ovarian = tested on: IGROV1 ovarian
786-0 renal = tested on: 786-0 renal
T-47D breast = tested on: T-47D breast
MDA-N = tested on: MDA-N
SK-OV-3 ovarian = tested on: SK-OV-3 ovarian
U251 CNS = tested on: U251 CNS
HL-60(TB) leukemia = tested on: HL-60(TB) leukemia
BT-549 breast = tested on: BT-549 breast
SK-MEL-2 melanoma = tested on: SK-MEL-2 melanoma
NCI-H226 lung = tested on: NCI-H226 lung
HT29 colon = tested on: HT29 colon
SF-539 CNS = tested on: SF-539 CNS
RXF 393 renal = tested on: RXF 393 renal

`CCOC(=O)CCc1cccc2c1oc1c(CCNC(=O)OCC3c4ccccc4-c4ccccc43)cccc12` gave a TGI (UACC-257 melanoma) of over 100 µM, a TGI (SNB-75 CNS) of 42.1 µM and a TGI (UO-31 renal) of over 100 µM. It also gave a TGI (SK-MEL-5 melanoma) of over 100 µM, a TGI (NCI-H522 lung) of over 100 µM and a TGI (SR leukemia) of over 100 µM. It also gave a TGI (HS 578T breast) of 16.5 µM, a TGI (DU-145 prostate) of over 100 µM and a TGI (MDA-MB-231 breast) of over 100 µM. The TGI (KM12 colon) was over 100 µM, the TGI (LOX IMVI melanoma) was over 100 µM and the TGI (MALME-3M melanoma) was 58.4 µM. It also gave a TGI (SW-620 colon) of over 100 µM, a TGI (SF-295 CNS) of over 100 µM and a TGI (HCC-2998 colon) of over 100 µM. The TGI (RPMI-8226 leukemia) was over 100 µM, the TGI (OVCAR-5 ovarian) was over 100 µM and the TGI (ACHN renal) was over 100 µM. It also gave a TGI (SNB-19 CNS) of 70.6 µM, a TGI (UACC-62 melanoma) of 63.6 µM and a TGI (OVCAR-4 ovarian) of over 100 µM. The TGI (CAKI-1 renal) was 45.4 µM, the TGI (HOP-62 NSCLC) was 52.3 µM and the TGI (A498 renal) was over 100 µM. For the same compound, the TGI (EKVX NSCLC) was over 100 µM, the TGI (NCI-H23 lung) was over 100 µM and the TGI (SN12C renal) was over 100 µM. It also gave a TGI (SK-MEL-28 melanoma) of over 100 µM, a TGI (PC-3 prostate) of over 100 µM and a TGI (MOLT-4 leukemia) of over 100 µM. For the same compound, the TGI (SF-268 CNS) was 70.3 µM, the TGI (MDA-MB-435) was over 100 µM and the TGI (TK-10 renal) was over 100 µM. The TGI (HCT-116 colon) was over 100 µM, the TGI (A549 NSCLC) was over 100 µM and the TGI (OVCAR-3 ovarian) was over 100 µM. The TGI (MCF7 breast) was over 100 µM, the TGI (K-562 leukemia) was over 100 µM and the TGI (CCRF-CEM leukemia) was over 100 µM. It also gave a TGI (HCT-15 colon) of over 100 µM, a TGI (HOP-92 NSCLC) of 85.6 µM and a TGI (NCI/ADR-RES ovarian) of over 100 µM. For the same compound, the TGI (M14 melanoma) was over 100 µM, the TGI (NCI-H460 lung) was over 100 µM and the TGI (COLO 205 colon) was over 100 µM. For the same compound, the TGI (OVCAR-8 ovarian) was over 100 µM, the TGI (IGROV1 ovarian) was over 100 µM and the TGI (786-0 renal) was over 100 µM. For the same compound, the TGI (T-47D breast) was 81.1 µM, the TGI (MDA-N) was over 100 µM and the TGI (SK-OV-3 ovarian) was over 100 µM. It also gave a TGI (U251 CNS) of over 100 µM, a TGI (HL-60(TB) leukemia) of over 100 µM and a TGI (BT-549 breast) of 68.4 µM. It also gave a TGI (SK-MEL-2 melanoma) of over 100 µM and a TGI (NCI-H226 lung) of over 100 µM.

In the case of `O=C(/C=C/c1ccc(O)c(O)c1)OCCCOC(=O)/C=C/c1ccc(O)c(O)c1`, the TGI (UACC-257 melanoma) is reported as over 100 µM, the TGI (SNB-75 CNS) is reported as over 100 µM and the TGI (UO-31 renal) is reported as over 100 µM. It also gave a TGI (SK-MEL-5 melanoma) of 32.9 µM, a TGI (NCI-H522 lung) of 40.6 µM and a TGI (SR leukemia) of over 100 µM. It also gave a TGI (HS 578T breast) of over 100 µM, a TGI (DU-145 prostate) of over 100 µM and a TGI (MDA-MB-231 breast) of over 100 µM. For the same compound, the TGI (KM12 colon) was over 100 µM, the TGI (HT29 colon) was over 100 µM and the TGI (LOX IMVI melanoma) was 69.6 µM. It also gave a TGI (MALME-3M melanoma) of over 100 µM, a TGI (SW-620 colon) of over 100 µM and a TGI (SF-295 CNS) of 53.6 µM. The TGI (SF-539 CNS) was over 100 µM, the TGI (HCC-2998 colon) was over 100 µM and the TGI (RPMI-8226 leukemia) was over 100 µM. The TGI (OVCAR-5 ovarian) was over 100 µM, the TGI (ACHN renal) was over 100 µM and the TGI (SNB-19 CNS) was over 100 µM. For the same compound, the TGI (UACC-62 melanoma) was 49.4 µM, the TGI (OVCAR-4 ovarian) was over 100 µM and the TGI (CAKI-1 renal) was over 100 µM. It also gave a TGI (HOP-62 NSCLC) of 67.9 µM, a TGI (RXF 393 renal) of 79.6 µM and a TGI (A498 renal) of over 100 µM. The TGI (EKVX NSCLC) was over 100 µM, the TGI (NCI-H23 lung) was 78 µM and the TGI (SN12C renal) was over 100 µM. The TGI (SK-MEL-28 melanoma) was over 100 µM, the TGI (PC-3 prostate) was over 100 µM and the TGI (MOLT-4 leukemia) was over 100 µM. For the same compound, the TGI (SF-268 CNS) was over 100 µM, the TGI (MDA-MB-435) was over 100 µM and the TGI (TK-10 renal) was over 100 µM. The TGI (HCT-116 colon) was over 100 µM, the TGI (A549 NSCLC) was over 100 µM and the TGI (OVCAR-3 ovarian) was 32.8 µM. For the same compound, the TGI (MCF7 breast) was over 100 µM, the TGI (K-562 leukemia) was over 100 µM and the TGI (CCRF-CEM leukemia) was over 100 µM. For the same compound, the TGI (HCT-15 colon) was over 100 µM, the TGI (HOP-92 NSCLC) was 84.4 µM and the TGI (NCI/ADR-RES ovarian) was over 100 µM. For the same compound, the TGI (M14 melanoma) was 65.8 µM, the TGI (NCI-H460 lung) was over 100 µM and the TGI (COLO 205 colon) was over 100 µM. It also gave a TGI (OVCAR-8 ovarian) of over 100 µM, a TGI (IGROV1 ovarian) of over 100 µM and a TGI (786-0 renal) of over 100 µM. The TGI (T-47D breast) was over 100 µM, the TGI (MDA-N) was 80.1 µM and the TGI (SK-OV-3 ovarian) was over 100 µM. The TGI (U251 CNS) was over 100 µM, the TGI (BT-549 breast) was over 100 µM and the TGI (SK-MEL-2 melanoma) was over 100 µM.

For `CC(C)(C)OC(=O)C1CCC/C1=N/Nc1ccc([N+](=O)[O-])cc1[N+](=O)[O-]` (centres undefined), the TGI (SNB-75 CNS) was 73.9 µM, the TGI (UO-31 renal) was over 100 µM and the TGI (SK-MEL-5 melanoma) was 29.3 µM. The TGI (NCI-H522 lung) was over 100 µM, the TGI (SR leukemia) was over 100 µM and the TGI (HS 578T breast) was over 100 µM. The TGI (DU-145 prostate) was over 100 µM, the TGI (MDA-MB-231 breast) was over 100 µM and the TGI (KM12 colon) was over 100 µM. For the same compound, the TGI (HT29 colon) was over 100 µM, the TGI (LOX IMVI melanoma) was over 100 µM and the TGI (MALME-3M melanoma) was over 100 µM. The TGI (SW-620 colon) was over 100 µM, the TGI (SF-295 CNS) was 88.9 µM and the TGI (HCC-2998 colon) was over 100 µM. For the same compound, the TGI (RPMI-8226 leukemia) was over 100 µM, the TGI (OVCAR-5 ovarian) was over 100 µM and the TGI (ACHN renal) was over 100 µM. The TGI (SNB-19 CNS) was over 100 µM, the TGI (UACC-62 melanoma) was over 100 µM and the TGI (OVCAR-4 ovarian) was over 100 µM. The TGI (CAKI-1 renal) was over 100 µM, the TGI (HOP-62 NSCLC) was over 100 µM and the TGI (RXF 393 renal) was over 100 µM. The TGI (A498 renal) was 65.4 µM, the TGI (EKVX NSCLC) was 89.9 µM and the TGI (NCI-H23 lung) was 63.5 µM. The TGI (SN12C renal) was over 100 µM, the TGI (SK-MEL-28 melanoma) was over 100 µM and the TGI (PC-3 prostate) was over 100 µM. It also gave a TGI (MOLT-4 leukemia) of over 100 µM, a TGI (SF-268 CNS) of over 100 µM and a TGI (MDA-MB-435) of 53.2 µM. For the same compound, the TGI (TK-10 renal) was over 100 µM, the TGI (HCT-116 colon) was 78.5 µM and the TGI (A549 NSCLC) was over 100 µM. For the same compound, the TGI (OVCAR-3 ovarian) was over 100 µM, the TGI (MCF7 breast) was over 100 µM and the TGI (K-562 leukemia) was over 100 µM. For the same compound, the TGI (CCRF-CEM leukemia) was over 100 µM, the TGI (HCT-15 colon) was over 100 µM and the TGI (HOP-92 NSCLC) was over 100 µM. It also gave a TGI (NCI/ADR-RES ovarian) of over 100 µM, a TGI (M14 melanoma) of over 100 µM and a TGI (NCI-H460 lung) of over 100 µM. The TGI (COLO 205 colon) was over 100 µM, the TGI (OVCAR-8 ovarian) was over 100 µM and the TGI (IGROV1 ovarian) was over 100 µM. For the same compound, the TGI (786-0 renal) was over 100 µM, the TGI (T-47D breast) was 88.1 µM and the TGI (MDA-N) was over 100 µM. It also gave a TGI (SK-OV-3 ovarian) of over 100 µM, a TGI (U251 CNS) of 56.1 µM and a TGI (HL-60(TB) leukemia) of over 100 µM. The TGI (BT-549 breast) was 93.2 µM and the TGI (NCI-H226 lung) was over 100 µM.
